Assay results reported in paper PMC6723908, “OCTN2-Mediated Acetyl-L-Carnitine Transport in Human Pulmonary Epithelial Cells In Vitro” (Pharmaceutics, 2019).

Target: T1, OCTN2 (Homo sapiens, UniProt O76082)
T1 construct: gene SLC22A5
T1 sequence (O76082 1-557): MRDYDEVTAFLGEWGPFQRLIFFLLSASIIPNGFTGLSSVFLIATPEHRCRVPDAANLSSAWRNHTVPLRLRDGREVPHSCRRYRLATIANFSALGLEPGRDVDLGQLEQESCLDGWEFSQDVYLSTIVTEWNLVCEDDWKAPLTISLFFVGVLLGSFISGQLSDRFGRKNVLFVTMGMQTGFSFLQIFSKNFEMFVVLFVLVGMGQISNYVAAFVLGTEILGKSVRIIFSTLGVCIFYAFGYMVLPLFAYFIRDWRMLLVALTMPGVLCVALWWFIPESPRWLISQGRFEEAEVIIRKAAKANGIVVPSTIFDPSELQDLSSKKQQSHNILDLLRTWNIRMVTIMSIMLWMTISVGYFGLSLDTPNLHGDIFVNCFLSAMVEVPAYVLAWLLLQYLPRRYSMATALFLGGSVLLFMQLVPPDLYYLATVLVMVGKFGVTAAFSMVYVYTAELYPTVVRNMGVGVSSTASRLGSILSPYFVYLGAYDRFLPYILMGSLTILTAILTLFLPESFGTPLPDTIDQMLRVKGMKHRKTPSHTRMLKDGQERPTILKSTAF
Test: inhibition of [3H]-acetyl-L-carnitine uptake in ATI-like and A549 cells at […] (uptake reduced to […] in A549)
Assay type: cell-based
Settings: read-out: % of control uptake at 500 μM

C[N+](C)(C)C[C@@H](O)CC(=O)[O-] [D-carnitine]
remaining activity at 500 µM: 25.8 ± 1.3%
